Source: patent US6693216B2, “Calcium double salts” (Nutrinova Nutrition Specialties & Food Ingredients GmbH, priority 2000, dated 2004)
Read-outs that look alike come from different tables or passages of the source.

Key:
Molds I = settings: Part I, 1 g/l in apple juice pH 4.5, 25° C.
Thermophilic bacilli = settings: Part I, 1 g/l in apple juice pH 4.5, 25° C.
Lactic acid bacteria = settings: Part I, 1 g/l in apple juice pH 4.5, 25° C.
Gram-negative bacteria = settings: Part I, 1 g/l in apple juice pH 4.5, 25° C.
Acetic acid bacteria = settings: Part I, 1 g/l in apple juice pH 4.5, 25° C.
Gram-positive bacteria = settings: Part I, 1 g/l in apple juice pH 4.5, 25° C.
Bacilli = settings: Part I, 1 g/l in apple juice pH 4.5, 25° C.
Yeasts = settings: Part I, 1 g/l in apple juice pH 4.5, 25° C.
Clostridia = settings: Part I, 1 g/l in apple juice pH 4.5, 25° C.
[1] = sealed
Description: Salts prepared as in example 1 were dried, stored under the specified conditions without the addition of other substances and checked at regular intervals visually for discoloration: […]

## C/C=C/C=C/C(=O)[O-].[K+] [Potassium Sorbate]
Molds I; 1 day after inoculation (1.7 × 10^4)
  Number of surviving microorganisms per g of contaminated sample, Molds I: 5.0 × 10^4 CFU/g
Molds I; 3 days after inoculation (1.7 × 10^4)
  Number of surviving microorganisms per g of contaminated sample, Molds I: <100 CFU/g
Molds I; 7 days after inoculation (1.7 × 10^4)
  Number of surviving microorganisms per g of contaminated sample, Molds I: <10 CFU/g
Molds I; 14 days after inoculation (1.7 × 10^4)
  Number of surviving microorganisms per g of contaminated sample, Molds I: <10 CFU/g
Thermophilic bacilli; 1 day after inoculation (1.3 × 10^4)
  Number of surviving microorganisms per g of contaminated sample, Thermophilic bacilli: 1.6 × 10^3 CFU/g
Thermophilic bacilli; 3 days after inoculation (1.3 × 10^4)
  Number of surviving microorganisms per g of contaminated sample, Thermophilic bacilli: 900 CFU/g
Thermophilic bacilli; 7 days after inoculation (1.3 × 10^4)
  Number of surviving microorganisms per g of contaminated sample, Thermophilic bacilli: <100 CFU/g
Thermophilic bacilli; 14 days after inoculation (1.3 × 10^4)
  Number of surviving microorganisms per g of contaminated sample, Thermophilic bacilli: <10 CFU/g
Lactic acid bacteria; 1 day after inoculation (1.9 × 10^4)
  Number of surviving microorganisms per g of contaminated sample, Lactic acid bacteria: 1.3 × 10^4 CFU/g
Lactic acid bacteria; 3 days after inoculation (1.9 × 10^4)
  Number of surviving microorganisms per g of contaminated sample, Lactic acid bacteria: 1.2 × 10^6 CFU/g
Lactic acid bacteria; 7 days after inoculation (1.9 × 10^4)
  Number of surviving microorganisms per g of contaminated sample, Lactic acid bacteria: 1.7 × 10^6 CFU/g
Lactic acid bacteria; 14 days after inoculation (1.9 × 10^4)
  Number of surviving microorganisms per g of contaminated sample, Lactic acid bacteria: 1.2 × 10^7 CFU/g
Gram-negative bacteria; 1 day after inoculation (2.4 × 10^4)
  Number of surviving microorganisms per g of contaminated sample, Gram-negative bacteria: 2.9 × 10^4 CFU/g
Gram-negative bacteria; 3 days after inoculation (2.4 × 10^4)
  Number of surviving microorganisms per g of contaminated sample, Gram-negative bacteria: 1.5 × 10^3 CFU/g
Gram-negative bacteria; 7 days after inoculation (2.4 × 10^4)
  Number of surviving microorganisms per g of contaminated sample, Gram-negative bacteria: 350 CFU/g
Gram-negative bacteria; 14 days after inoculation (2.4 × 10^4)
  Number of surviving microorganisms per g of contaminated sample, Gram-negative bacteria: <10 CFU/g
Acetic acid bacteria; 1 day after inoculation (2.3 × 10^4)
  Number of surviving microorganisms per g of contaminated sample, Acetic acid bacteria: 1.7 × 10^4 CFU/g
Acetic acid bacteria; 3 days after inoculation (2.3 × 10^4)
  Number of surviving microorganisms per g of contaminated sample, Acetic acid bacteria: 4.3 × 10^5 CFU/g
Acetic acid bacteria; 7 days after inoculation (2.3 × 10^4)
  Number of surviving microorganisms per g of contaminated sample, Acetic acid bacteria: 1.3 × 10^3 CFU/g
Acetic acid bacteria; 14 days after inoculation (2.3 × 10^4)
  Number of surviving microorganisms per g of contaminated sample, Acetic acid bacteria: 2.7 × 10^5 CFU/g
Gram-positive bacteria; 1 day after inoculation (2.6 × 10^4)
  Number of surviving microorganisms per g of contaminated sample, Gram-positive bacteria: 5.5 × 10^4 CFU/g
Gram-positive bacteria; 3 days after inoculation (2.6 × 10^4)
  Number of surviving microorganisms per g of contaminated sample, Gram-positive bacteria: 7.0 × 10^3 CFU/g
Gram-positive bacteria; 7 days after inoculation (2.6 × 10^4)
  Number of surviving microorganisms per g of contaminated sample, Gram-positive bacteria: <100 CFU/g
Gram-positive bacteria; 14 days after inoculation (2.6 × 10^4)
  Number of surviving microorganisms per g of contaminated sample, Gram-positive bacteria: <10 CFU/g
Bacilli; 1 day after inoculation (1.5 × 10^4)
  Number of surviving microorganisms per g of contaminated sample, Bacilli: 1.4 × 10^3 CFU/g
Bacilli; 3 days after inoculation (1.5 × 10^4)
  Number of surviving microorganisms per g of contaminated sample, Bacilli: (<100) CFU/g
Bacilli; 7 days after inoculation (1.5 × 10^4)
  Number of surviving microorganisms per g of contaminated sample, Bacilli: 1.4 × 10^3 CFU/g
Bacilli; 14 days after inoculation (1.5 × 10^4)
  Number of surviving microorganisms per g of contaminated sample, Bacilli: 1.3 × 10^3 CFU/g
Yeasts; 1 day after inoculation (2.5 × 10^4)
  Number of surviving microorganisms per g of contaminated sample, Yeasts: 2.7 × 10^5 CFU/g
Yeasts; 3 days after inoculation (2.5 × 10^4)
  Number of surviving microorganisms per g of contaminated sample, Yeasts: 1.1 × 10^4 CFU/g
Yeasts; 7 days after inoculation (2.5 × 10^4)
  Number of surviving microorganisms per g of contaminated sample, Yeasts: 6.0 × 10^2 CFU/g
Yeasts; 14 days after inoculation (2.5 × 10^4)
  Number of surviving microorganisms per g of contaminated sample, Yeasts: <10 CFU/g
Clostridia; 1 day after inoculation (1.4 × 10^4)
  Number of surviving microorganisms per g of contaminated sample, Clostridia: 1.1 × 10^3 CFU/g
Clostridia; 3 days after inoculation (1.4 × 10^4)
  Number of surviving microorganisms per g of contaminated sample, Clostridia: 450 CFU/g
Clostridia; 7 days after inoculation (1.4 × 10^4)
  Number of surviving microorganisms per g of contaminated sample, Clostridia: 160 CFU/g
Clostridia; 14 days after inoculation (1.4 × 10^4)
  Number of surviving microorganisms per g of contaminated sample, Clostridia: 250 CFU/g

## CCC(=O)[O-].O=C([O-])c1ccccc1.[Ca+2]
[1]; dark at 7° C.
  Time after yellow-brown discoloration of a 1% strength aqueous solution: 12 months
  Time after yellow-brown discoloration of the powder: 12 months
[1]; dark at 25° C.
  Time after yellow-brown discoloration of a 1% strength aqueous solution: 8 months
  Time after yellow-brown discoloration of the powder: 7 months
[1]; under sunlight at 7° C.
  Time after yellow-brown discoloration of a 1% strength aqueous solution: 12 months
  Time after yellow-brown discoloration of the powder: 12 months
[1]; under sunlight at 25° C.
  Time after yellow-brown discoloration of a 1% strength aqueous solution: 7-8 months
  Time after yellow-brown discoloration of the powder: 8 months
